From patent US6828327B2, “Macroheterocylic compounds useful as kinase inhibitors” (Ortho-McNeil Pharmaceutical, Inc., priority 2000, dated 2004)

Assays:
GSK 3-β = molecular target: T1, GSK 3-β (Oryctolagus cuniculus, UniProt G1T8E2); assay: Glycogen Synthase Kinase 3-β Assay; assay type: biochemical, rabbit; details: inhibition value, recombinant rabbit GSK 3-β, PPI-2 substrate
T1 construct: purchased New England Biolabs, Beverly Mass
Procedure: The inhibitory activity of a compound against Glycogen Synthase Kinase 3-β (GSK 3-β) activity was assessed using a recombinant rabbit GSK 3-β according to the procedure below.
The mixture was reacted for 90 minutes at 30° C. to allow phosphorylation of the PPI-2 protein and then the protein in the reaction was precipitated using 10% trichloroacetic acid (TCA). The precipitated protein was collected on filter plates (MultiScreen-DV, Millipore, Bedford Mass.), which were subsequently washed. Finally, the radioactivity was quantified using a TopCount Scintillation Counter (Packard, Meridian Conn.). […] Staurosporine or Valproate (both available from several commercial sources), known inhibitors of GSK-3-β, were used as a positive control for screening.

CDK1 = molecular target: T2, CDK1 (Homo sapiens, UniProt P06493); assay: Biotinylated Peptide Substrate Assay, CDK1; assay type: biochemical; details: read-out: CDK1 Kinase Assay (IC50 uM)
T2 construct: purchased New England Biolabs, Beverly, Mass; 6020; host or cells: insect cells
Procedure: (§1) Assays to test inhibition of a compound for other kinases were preformed using methods that measure the amount of phosphorylation of a biotinylated peptide substrate. Biotinylated peptide substrates were selected from the literature as appropriate for the enzyme being evaluated.
(§2) A kinase reaction mix was prepared in 50 mM Tris-HCl pH=8, 10 mM MgCl2, 0.1 mM Na3VO4, 1 mM DTT, 10 μM ATP, 0.25-1 μM biotinylated peptide substrate, 0.2-0.8 μCuries per well ^33P-γ-ATP (2000-3000 Ci/mmol). Assay conditions vary slightly for each protein kinase, for example, insulin receptor kinase requires 10 mM MnCl2 for activity and Calmodulin-dependent protein kinase requires calmodulin and 10 mM CaCl2. The reaction mixture was dispensed into the wells of a streptavidin coated Flashplate and 1 μL drug stock in 100% DMSO was added to a 100 μL reaction volume resulting in a final concentration of 1% DMSO in the reaction. Enzyme was diluted in 50 mM Tris-HCl pH=8.0, 0.1% BSA and added to each well. The reaction was incubated for one hour at 30° C. in the presence of compound. After one hour the reaction mix was aspirated from the plate and the plate was washed with PBS containing 100 mM EDTA. The plate was read on a scintillation counter to determine ^33P-γ-ATP incorporated into the immobilized peptide. Test compounds were assayed in duplicate at 8 concentrations (100 uM, 10 uM, 1 uM, 100 nM, 10 nM, 1 nM, 100 pM, 10 pM). A maximum and minimum signal for the assay was determined on each plate.
(§3) The IC50 was calculated from the dose response curve of the percent inhibition of the maximum signal in the assay according to the formula:
(§4) % Inhibition=((MS−BS)/(TCS−BS))×100%
(§5) where MS=Maximum Signal, BS=Background Signal, TCS=Test Compound Signal. The percent inhibition was graphed against the log concentration of the test compound. Known inhibitor compounds as appropriate references for the kinase being assayed were also included on each plate.
(§6) VEGF-R (vascular endothelial growth factor receptor-2) is a fusion protein containing a polyhistidine tag at the N-terminus followed by amino acids 786-1343 of the rat VEGF-R2 kinase domain (GenBank Accession #U93306). Protein Kinase A is the catalytic subunit of cAMP dependent protein kinase-A purified from bovine heart (Upstate Biotech, Lake Placid, N.Y., Cat#14-114). CDK1 (cyclin dependent kinase 1) is isolated from insect cells expressing both the human CDK1 catalytic subunit and its positive regulatory subunit cyclin B (New England Biolabs, Beverly, Mass., Cat. #6020). Casein Kinase-1 is a protein truncation at amino acid 318 of the C-terminal portion of the rat CK1 delta isoform produced in E.coli (New England Biolabs, Beverly, Mass., Cat. #6030). […]

Casein Kinase 1 = molecular target: T3, Casein Kinase 1 (Rattus norvegicus, UniProt Q06486); assay: Biotinylated Peptide Substrate Assay, Casein Kinase 1; assay type: biochemical
T3 construct: a protein truncation at amino acid 318 of the C-terminal portion of the rat CK1 delta isoform; purchased New England Biolabs, Beverly, Mass; 6030; host or cells: E. coli
T3 sequence (Q06486 1-317 limits assumed): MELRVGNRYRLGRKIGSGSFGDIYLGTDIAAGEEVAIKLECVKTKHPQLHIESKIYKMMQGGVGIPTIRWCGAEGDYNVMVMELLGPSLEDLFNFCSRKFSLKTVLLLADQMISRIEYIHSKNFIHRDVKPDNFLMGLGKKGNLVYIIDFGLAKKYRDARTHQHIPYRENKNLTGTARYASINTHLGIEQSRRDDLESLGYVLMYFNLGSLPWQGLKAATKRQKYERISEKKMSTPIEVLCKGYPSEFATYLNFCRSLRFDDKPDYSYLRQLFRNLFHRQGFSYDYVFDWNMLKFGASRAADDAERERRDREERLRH
Procedure: as §1, §2, §3, §4, §5, §6

EGF-R = molecular target: T4, EGF-R (Homo sapiens, UniProt P00533); assay: Biotinylated Peptide Substrate Assay, EGF-R; assay type: biochemical; details: read-out: EGF-R Kinase Assay (IC50 uM)
T4 construct: is purified from human A431 cell membranes; purchased Sigma, St. Louis, Mo; E3641; host or cells: human A431 cell membranes (endogenous receptor)
Procedure: as §1, §2, §3, §4, §5, §6

Calmodulin Kinase 2 = molecular target: T5, Calmodulin Kinase 2 (Rattus norvegicus, UniProt P11275); assay: Biotinylated Peptide Substrate Assay, Calmodulin Kinase 2; assay type: biochemical
T5 construct: purchased New England Biolabs, Beverly, Mass; 6060; host or cells: insect cells
Procedure: as §1, §2, §3, §4, §5, §6

Map kinase ERK-2 = molecular target: T6, Map kinase ERK-2 (Rattus norvegicus, UniProt P63086); assay: Biotinylated Peptide Substrate Assay, Map kinase ERK-2; assay type: biochemical
T6 construct: polyhistidine (N); purchased BIOMOL, Plymouth Meeting, Pa; SE-137; host or cells: E. coli
Procedure: as §1, §2, §3, §4, §5, §6

Insulin-R kinase = molecular target: T7, Insulin-R kinase (Homo sapiens, UniProt P06213); assay: Biotinylated Peptide Substrate Assay, Insulin-R kinase; assay type: biochemical
T7 construct: consists of residues 941-1313 of the cytoplasmic domain of the beta-subunit of the human insulin receptor; purchased BIOMOL, Plymouth Meeting, Pa; SE-195
Procedure: as §1, §2, §3, §4, §5, §6

T7 sequence (P06213 980-1352): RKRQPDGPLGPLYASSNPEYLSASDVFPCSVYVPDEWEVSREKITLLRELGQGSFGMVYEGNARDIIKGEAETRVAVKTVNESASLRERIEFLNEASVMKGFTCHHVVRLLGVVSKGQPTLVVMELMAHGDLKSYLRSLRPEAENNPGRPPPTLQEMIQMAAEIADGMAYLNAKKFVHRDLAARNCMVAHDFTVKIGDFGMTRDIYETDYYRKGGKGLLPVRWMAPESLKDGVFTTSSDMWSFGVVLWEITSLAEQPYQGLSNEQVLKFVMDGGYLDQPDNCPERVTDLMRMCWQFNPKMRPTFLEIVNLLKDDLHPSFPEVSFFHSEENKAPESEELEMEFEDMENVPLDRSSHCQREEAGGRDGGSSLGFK
T6 sequence (P63086 whole entry): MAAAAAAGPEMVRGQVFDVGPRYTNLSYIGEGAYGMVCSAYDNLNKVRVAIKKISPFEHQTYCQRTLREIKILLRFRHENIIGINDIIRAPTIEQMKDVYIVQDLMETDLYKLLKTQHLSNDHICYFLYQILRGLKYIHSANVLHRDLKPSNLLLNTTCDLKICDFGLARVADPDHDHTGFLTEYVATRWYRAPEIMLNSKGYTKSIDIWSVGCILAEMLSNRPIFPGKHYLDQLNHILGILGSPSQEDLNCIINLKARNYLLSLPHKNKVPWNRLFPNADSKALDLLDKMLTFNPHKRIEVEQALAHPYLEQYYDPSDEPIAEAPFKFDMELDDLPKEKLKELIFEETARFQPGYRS
T4 sequence (P00533 25-1210): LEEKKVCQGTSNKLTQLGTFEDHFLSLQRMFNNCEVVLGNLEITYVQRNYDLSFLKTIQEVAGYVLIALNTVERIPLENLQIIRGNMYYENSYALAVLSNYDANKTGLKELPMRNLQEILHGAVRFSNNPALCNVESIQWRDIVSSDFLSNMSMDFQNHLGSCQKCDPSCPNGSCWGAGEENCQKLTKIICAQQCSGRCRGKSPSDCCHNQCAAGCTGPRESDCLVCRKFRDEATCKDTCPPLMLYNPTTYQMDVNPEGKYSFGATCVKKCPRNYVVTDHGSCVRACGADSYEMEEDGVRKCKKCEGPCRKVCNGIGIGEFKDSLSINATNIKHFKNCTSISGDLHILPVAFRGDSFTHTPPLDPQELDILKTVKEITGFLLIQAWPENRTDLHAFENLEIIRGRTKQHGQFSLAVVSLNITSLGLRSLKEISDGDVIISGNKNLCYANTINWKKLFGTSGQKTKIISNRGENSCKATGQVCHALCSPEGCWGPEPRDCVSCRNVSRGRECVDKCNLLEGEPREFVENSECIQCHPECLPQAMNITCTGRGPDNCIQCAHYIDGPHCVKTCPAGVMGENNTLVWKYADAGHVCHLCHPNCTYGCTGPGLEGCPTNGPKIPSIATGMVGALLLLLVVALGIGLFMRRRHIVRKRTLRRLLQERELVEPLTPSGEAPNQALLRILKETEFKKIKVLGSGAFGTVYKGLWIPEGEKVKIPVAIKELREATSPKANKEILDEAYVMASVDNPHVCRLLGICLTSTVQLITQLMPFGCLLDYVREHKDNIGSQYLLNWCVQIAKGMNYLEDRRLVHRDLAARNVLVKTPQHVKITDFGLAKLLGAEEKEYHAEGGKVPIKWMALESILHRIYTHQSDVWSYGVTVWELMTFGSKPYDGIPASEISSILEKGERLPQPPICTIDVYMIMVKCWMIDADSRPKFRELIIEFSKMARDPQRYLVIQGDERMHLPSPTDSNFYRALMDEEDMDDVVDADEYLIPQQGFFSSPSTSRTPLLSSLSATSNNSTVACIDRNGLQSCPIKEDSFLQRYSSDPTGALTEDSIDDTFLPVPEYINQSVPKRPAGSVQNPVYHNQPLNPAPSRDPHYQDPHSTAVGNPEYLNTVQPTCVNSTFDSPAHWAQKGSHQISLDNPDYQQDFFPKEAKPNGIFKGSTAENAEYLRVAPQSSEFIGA
T1 sequence (G1T8E2 1-432): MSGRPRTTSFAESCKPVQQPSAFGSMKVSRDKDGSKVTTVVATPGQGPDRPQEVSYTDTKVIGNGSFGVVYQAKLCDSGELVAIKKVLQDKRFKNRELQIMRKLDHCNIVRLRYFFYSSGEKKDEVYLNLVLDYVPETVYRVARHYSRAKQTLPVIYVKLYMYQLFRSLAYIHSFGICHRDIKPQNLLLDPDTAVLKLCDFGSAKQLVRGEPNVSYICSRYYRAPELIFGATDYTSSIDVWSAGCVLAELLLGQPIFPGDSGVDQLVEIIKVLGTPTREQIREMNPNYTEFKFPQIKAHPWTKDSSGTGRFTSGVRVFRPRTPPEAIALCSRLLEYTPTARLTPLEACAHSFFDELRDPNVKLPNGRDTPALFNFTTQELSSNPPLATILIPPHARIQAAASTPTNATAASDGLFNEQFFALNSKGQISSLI
T2 sequence (P06493 whole entry): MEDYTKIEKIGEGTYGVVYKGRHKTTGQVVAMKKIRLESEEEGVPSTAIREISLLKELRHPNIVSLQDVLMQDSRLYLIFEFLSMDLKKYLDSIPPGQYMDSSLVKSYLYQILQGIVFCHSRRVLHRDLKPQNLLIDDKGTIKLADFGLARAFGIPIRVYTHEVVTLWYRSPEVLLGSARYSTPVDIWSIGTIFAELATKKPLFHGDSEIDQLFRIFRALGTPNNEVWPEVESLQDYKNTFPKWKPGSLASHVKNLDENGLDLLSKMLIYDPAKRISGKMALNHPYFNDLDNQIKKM
T2 sequence (P14635 whole entry partner): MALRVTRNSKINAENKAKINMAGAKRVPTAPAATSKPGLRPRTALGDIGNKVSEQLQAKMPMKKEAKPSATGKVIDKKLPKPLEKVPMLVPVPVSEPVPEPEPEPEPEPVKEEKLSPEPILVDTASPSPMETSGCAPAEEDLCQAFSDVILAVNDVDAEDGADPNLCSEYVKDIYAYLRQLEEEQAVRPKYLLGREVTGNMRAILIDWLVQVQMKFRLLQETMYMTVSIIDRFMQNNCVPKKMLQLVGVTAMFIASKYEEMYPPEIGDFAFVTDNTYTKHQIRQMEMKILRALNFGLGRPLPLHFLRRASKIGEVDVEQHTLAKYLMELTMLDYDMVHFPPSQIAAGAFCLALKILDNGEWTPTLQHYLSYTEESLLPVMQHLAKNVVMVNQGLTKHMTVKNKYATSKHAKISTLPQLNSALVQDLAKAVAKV

IC50 (GSK 3-β) | IC50 (CDK1) | IC50 (Casein Kinase 1) | IC50 (EGF-R) | IC50 (Calmodulin Kinase 2) | IC50 (Map kinase ERK-2) | IC50 (Insulin-R kinase) | SMILES
0.015 µM | 0.457 µM | > 10 µM | > 10 µM | > 10 µM | > 10 µM | > 10 µM | O=C1NC(=O)C2=C1c1cn(c3ccccc13)CCOCCOCCOCCn1cc2c2cccnc21 [Cpd 11]
0.128 µM | 0.422 µM | > 10 µM | > 10 µM | > 10 µM | > 10 µM | > 10 µM | O=C1NC(=O)C2=C1c1cn(c3ccccc13)CCOCCOCCn1cc2c2cccnc21 [Cpd 10]
0.027 µM | > 10 µM | > 10 µM | > 10 µM | > 10 µM | > 10 µM | > 10 µM | O=C1NC(=O)C2=C1c1cn(c3ncccc13)CCOCCOCCOCCn1cc2c2cccnc21 [Cpd 1]
0.032 µM | > 10 µM | > 10 µM | > 10 µM | > 10 µM | > 10 µM | > 10 µM | O=C1NC(=O)C2=C1c1cn(c3ncccc13)CCOCCOCCOCCOCCn1cc2c2cccnc21 [Cpd 2]
